Test results as given in patent publication US20230227477A1, “COMPOUNDS FOR SENSING REACTIVE OXYGEN SPECIES AND METHODS FOR USING THE SAME” (WAKE FOREST UNIVERSITY HEALTH SCIENCES, priority 2020, published 2023).

Experiments:
[1] = Selectivity screen of compound RAH2115 against oxidants, reductants, nucleophiles and salts (turn-on fluorescence); type: physicochemical; conditions: RAH2115 10 μM
Source text: Given the longer excitation and emission profile of resorufin, it was hypothesized that compound RAH2115 would provide a better gauge of the overall selectivity and sensitivity of the scaffold towards H2O2 while confirming its potential applications within a biological setting. The high selectivity the scaffold towards H2O2 was confirmed by thoroughly screening compound RAH2115 against various oxidants, reductants, and nucleophiles in PBS buffer (pH 7.4) and measuring the resulting turn-on fluorescence after a 2 h incubation period (See FIG. 4, Graph A).
[…] Next, 1.080 mL of a freshly prepared 111.1 μM compound RAH2115 stock solution was added to 10.80 mL of 1× PBS buffer (pH 7.4) to give a total volume of 11.88 mL. 120 μL of analyte stock solution (PBS buffer alone, hydrogen peroxide, glutathione, glutathione disulfide, sodium nitrite, L-cysteine, L-lysine, L-serine, sodium chloride, sodium bromide, L-homocysteine, sodium sulfide, sodium sulfate, sodium thiosulfate and sodium hypochlorite) was then added to give a final volume of 12 mL, and each reaction was left to stir at 37° C.

[2] = Initial rates of fluorescence intensity of compound RAH2115 vs H2O2 concentration; detection limit; type: physicochemical; conditions: Detection Limit=3σ/κ, slope from FIG. 4 Graph B
Experimental: The initial response rate of compound RAH2115 was also verified to be directly proportional to the concentration of H2O2. Specifically, immediately prior to use, 5 mM and 0.5 mM stock solutions of hydrogen peroxide were prepared in freshly degassed 1× PBS buffer (pH 7.4) using reagent grade H2O2 (30%). A 100 μM stock solution of compound RAH2115 was prepared in 200-proof ethanol. […] The plate was inserted into a 96-well plate reader (BioTek SYNERGY-HTX hybrid multi-mode reader, Winooski, Vt.) heated to 37° C., and agitated to ensure homogeneity. Fluorescence measurements were recorded and plotted as the change in initial rates of fluorescence intensity vs hydrogen peroxide concentration. This assay was repeated in triplicate and recorded as the mean+/−STDEV from three experiments.
This finding was deemed to be of great significance as the rate of payload release from the scaffold could then be tuned by varying the amount of H2O2. In addition, this finding also allowed for reaction-based fluorescent probes based off of this design (i.e., compound RAH2115) to be used to accurately quantify the amount of H2O2 in buffered solutions. Indeed, as depicted in FIG. 4, Graph B, when the initial rates of increasing fluorescence intensity of compound RAH2115 were plotted versus hydrogen peroxide concentration, excellent linearity between 0-1 mM was observed (R^2=0.99). […]

[3] = test system: HeLa cells; test: Imaging hydrogen peroxide in living HeLa cells with compound RAH2115 (confocal); type: cell-based, human; conditions: ex: 561 nm, em: 587 nm
Experimental: HeLa (human cervical cancer) cells were grown and maintained appropriately according to the American Type Culture Collection (Manassas, Va.). Dulbecco's Modified Eagle Medium:F12-K (1:1) was supplemented with 10% fetal bovine serum (FBS), 1% penicillin-streptomycin, and 1% L-glutamine (ThermoFisher). Cells were incubated at 37° C. in a 5% CO2 atmosphere and split at 70-80% confluency every 2-3 days.
At 70-80% confluency, HeLa cells were seeded on two 35 mm glass-bottom round plates (MatTek Corporation, Ashland, Mass.) at a density of 200 k cells/mL. After adhering overnight, FBS-free media was aspirated and cells were washed with phosphate buffered saline (1×, pH 7.4). Cells in one dish were then incubated with 10 mM Paraquat (Methyl Viologen) for 4 h. Afterwards, both dishes were washed and incubated with compound RAH2115 (10 μM) for 1 hour. After a final PBS wash, both plates were rehydrated in phenol red-free media for imaging. Both control (absence of paraquat) and experimental (presence of paraquat) plates were imaged: ex: 561 nm, em: 587 nm. […]
An automated cell selection algorithm within the ImageJ software was used to quantify intracellular fluorescence. Cells from both control and experimental groups were subjected to Gaussian smoothing in order to accurately measure fluorescence within cells based on a minimum threshold against background. […]

CC(C)(Cc1ccccc1B1OC(C)(C)C(C)(C)O1)C(=O)Oc1ccc2nc3ccc(=O)cc-3oc2c1 [compound RAH2115]
increase in relative fluorescence intensity when co-incubated with H2O2 ([1]; 1 mM H2O2, 2 h, vs PBS buffer alone): ~500 fold
increase in fluorescence intensity in the presence of other oxidants, reductants, nucleophiles and salts (in words) ([1]; 2 h, PBS pH 7.4, 37° C.): negligible
fluorescence (ex: 560 nm, em: 585 nm) ([1]; PBS pH 7.4, 37° C., 2 h, (1) PBS Buffer alone): 1.7+/−0.32
fluorescence (ex: 560 nm, em: 585 nm) ([1]; PBS pH 7.4, 37° C., 2 h, (2) 1 mM H2O2): 812.25+/−89.32
fluorescence (ex: 560 nm, em: 585 nm) ([1]; PBS pH 7.4, 37° C., 2 h, (3) 1 mM glutathione): 43.65+/−4.24
fluorescence (ex: 560 nm, em: 585 nm) ([1]; PBS pH 7.4, 37° C., 2 h, (4) 1 mM glutathione disulfide): 29.87+/−0.96
fluorescence (ex: 560 nm, em: 585 nm) ([1]; PBS pH 7.4, 37° C., 2 h, (5) 1 mM NaNO2): 47.10+/−11.06
fluorescence (ex: 560 nm, em: 585 nm) ([1]; PBS pH 7.4, 37° C., 2 h, (6) 1 mM L-cysteine): 2.63+/−0.13
fluorescence (ex: 560 nm, em: 585 nm) ([1]; PBS pH 7.4, 37° C., 2 h, (7) 1 mM L-lysine): 3.31+/−0.61
fluorescence (ex: 560 nm, em: 585 nm) ([1]; PBS pH 7.4, 37° C., 2 h, (8) 1 mM L-serine): 1.70+/−0.13
fluorescence (ex: 560 nm, em: 585 nm) ([1]; PBS pH 7.4, 37° C., 2 h, (9) 1 mM NaCl): 40.71+/−1.33
fluorescence (ex: 560 nm, em: 585 nm) ([1]; PBS pH 7.4, 37° C., 2 h, (10) 1 mM NaBr): 39.56+/−0.02
fluorescence (ex: 560 nm, em: 585 nm) ([1]; PBS pH 7.4, 37° C., 2 h, (11) 1 mM L-homocysteine): 74.32+/−5.27
fluorescence (ex: 560 nm, em: 585 nm) ([1]; PBS pH 7.4, 37° C., 2 h, (12) 100 mM Na2S): 46.97+/−1.47
fluorescence (ex: 560 nm, em: 585 nm) ([1]; PBS pH 7.4, 37° C., 2 h, (13) 1 mM sodium sulfate): 38.01+/−2.86
fluorescence (ex: 560 nm, em: 585 nm) ([1]; PBS pH 7.4, 37° C., 2 h, (14) 1 mM sodium thiosulfate): 1.72+/−0.22
fluorescence (ex: 560 nm, em: 585 nm) ([1]; PBS pH 7.4, 37° C., 2 h, (15) 1 mM sodium hypochlorite): 16.75+/−1.09
detection limit for H2O2 [2]: 1.5 µM
fluorescence in live HeLa cells pre-treated with paraquat (in words) ([3]; 10 mM paraquat 4 h, then RAH2115 10 μM 1 hour): strong red fluorescence within cells
fluorescence in live HeLa cells, absence of paraquat (in words) ([3]; RAH2115 10 μM, 1 hour, control without paraquat): no fluorescent cells were observed
